Key:
MRC5 = assay: Antiproliferative activity against human MRC5 cells after 72 hrs by sulforhodamine B assay; type: cell-based; conditions: MRC5, 72 h
SNU-638 = assay: Antiproliferative activity against human SNU638 cells after 72 hrs by sulforhodamine B assay; type: functional, cell-based; conditions: SNU-638, 72 h
MDA-MB-231 = assay: Antiproliferative activity against human MDA-MB-231 cells after 72 hrs by sulforhodamine B assay; type: functional, cell-based; conditions: MDA-MB-231, 72 h
SK-HEP1 = assay: Antiproliferative activity against human SKHEP1 cells after 72 hrs by sulforhodamine B assay; type: functional, cell-based; conditions: SK-HEP1, 72 h
HCT-116 = assay: Antiproliferative activity against human HCT116 cells after 72 hrs by sulforhodamine B assay; type: functional, cell-based; conditions: HCT-116, 72 h
A549 = assay: Antiproliferative activity against human A549 cells after 72 hrs by sulforhodamine B assay; type: functional, cell-based; conditions: A549, 72 h

IC50 (SNU-638): 820 nM
IC50 (MDA-MB-231): 3850 nM
IC50 (SK-HEP1): 780 nM
IC50 (HCT-116): 520 nM
IC50 (A549): 480 nM
Compound: COc1cc([C@@H]2c3cc4c(cc3[C@@H](O[C@@H]3O[C@@H]5CO[C@@H](C)O[C@H]5[C@H](O)[C@H]3O)[C@H]3COC(=O)[C@H]23)OCO4)cc(OC)c1O [ETOPOSIDE]
IC50 (MRC5): 11200 nM

Reference: ChEMBL document CHEMBL4342450, “Antitumor Activity of Ohmyungsamycin A through the Regulation of the Skp2-p27 Axis and MCM4 in Human Colorectal Cancer Cells” (J Nat Prod, 2020)
